Laboratory results published in patent US20210101928A1 (Sage Therapeutics, Inc., priority 2017, published 2021).

Target: GABAA receptor ([35S]-TBPS binding, rat brain cortical membranes)
Assay: Steroid inhibition of [35S]-TBPS binding
Details: Table I-1, 3 nM [35S]-TBPS, in the presence of 5 mM GABA, read-out: TBPS binding IC50
Procedure: [^35S]-t-Butylbicyclophosphorothionate (TBPS) binding assays using rat brain cortical membranes in the presence of 5 mM GABA has been described (Gee et al, J. Pharmacol. Exp. Ther. 1987, 241, 346-353; Hawkinson et al, Mol. Pharmacol. 1994, 46, 977-985; Lewin, A. H et al., Mol. Pharmacol. 1989, 35, 189-194).
Briefly, cortices are rapidly removed following decapitation of carbon dioxide-anesthetized Sprague-Dawley rats (200-250 g). The cortices are homogenized in 10 volumes of ice-cold 0.32 M sucrose using a glass/teflon homogenizer and centrifuged at 1500×g for 10 min at 4° C. The resultant supernatants are centrifuged at 10,000×g for 20 min at 4° C. to obtain the P2 pellets. The P2 pellets are resuspended in 200 mM NaCl/50 mM Na—K phosphate pH 7.4 buffer and centrifuged at 10,000×g for 10 min at 4° C. This washing procedure is repeated twice and the pellets are resuspended in 10 volumes of buffer. Aliquots ([…]) of the membrane suspensions are incubated with 3 nM [^35S]-TBPS and […] aliquots of test drug dissolved in dimethyl sulfoxide (DMSO) (final 0.5%) in the presence of 5 mM GABA. The incubation is brought to a final volume of 1.0 mL with buffer. Nonspecific binding is determined in the presence of […] and ranged from 15 to 25%. Following a 90 min incubation at room temp, the assays are terminated by filtration through glass fiber filters (Schleicher and Schuell No. 32) using a cell harvester (Brandel) and rinsed three times with ice-cold buffer. Filter bound radioactivity is measured by liquid scintillation spectrometry. Non-linear curve fitting of the overall data for each drug averaged for each concentration is done using Prism (GraphPad). […] The concentration of test compound producing 50% inhibition (IC50) of specific binding and the maximal extent of inhibition (Imax) are determined for the individual experiments with the same model used for the overall data and then the means±SEM.s of the individual experiments are calculated.
Various compounds are or can be screened to determine their potential as modulators of [^35S]-TBPS binding in vitro. These assays are or can be performed in accordance with the above.

`CN(CC(=O)[C@H]1CC[C@H]2[C@@H]3CC[C@]4(C)C[C@](C)(O)CC[C@]4(C)[C@H]3CC[C@]12C)c1ccccc1` [I-A2, 1-((3R,5R,8S,9S,10R,13S,14S,17S)-3-hydroxy-3,5,10,13-tetramethylhexadecahydro-1H-cyclopenta[a]phenanthren-17-yl)-2-(methyl(phenyl)amino)ethan-1-one] and `C[C@@]1(O)CC[C@]2(C)[C@H]3CC[C@]4(C)[C@@H](C(=O)CNc5ccccc5)CC[C@H]4[C@@H]3CC[C@]2(C)C1` [I-A3, 1-((3R,5R,8S,9S,10R,13S,14S,17S)-3-hydroxy-3,5,10,13-tetramethylhexadecahydro-1H-cyclopenta [a]phenanthren-17-yl)-2-(phenylamino)ethan-1-one] fall in the same range of IC50: 100 to 1000 nM for the first, 100 to 1000 nM for the second.

`C[C@@]1(O)CC[C@]2(C)[C@H]3CC[C@]4(C)[C@@H](C(=O)Cn5cc(C#N)cn5)CC[C@H]4[C@@H]3CC[C@]2(C)C1` [I-A4, 1-(2-((3R,5R,8S,9S,10R,13S,14S,17S)-3-hydroxy-3,5,10,13-tetramethylhexadecahydro-1H-cyclopenta[a]phenanthren-17-yl)-2-oxoethyl)-1H-pyrazole-4-carbonitrile] and `C[C@@]1(O)CC[C@]2(C)[C@H]3CC[C@]4(C)[C@@H](C(=O)Cn5cc6ccncc6n5)CC[C@H]4[C@@H]3CC[C@]2(C)C1` [I-A6, 1-((3R,5R,8S,9S,10R,13S,14S,17S)-3-hydroxy-3,5,10,13-tetramethylhexadecahydro-1H-cyclopenta[a]phenanthren-17-yl)-2-(2H-pyrazolo[3,4-c]pyridin-2-yl)ethan-1-one] fall in the same range of IC50: 100 to 1000 nM for the first, 100 to 1000 nM for the second.

Compared with `CC(=O)[C@H]1CC[C@H]2[C@@H]3CC[C@]4(C)C[C@@](C)(O)CC[C@]4(C)[C@H]3CC[C@]12C` [I-A5, 1-((3S,5R,8S,9S,10R,13S,14S,17S)-3-hydroxy-3,5,10,13-tetramethylhexadecahydro-1H-cyclopenta[a]phenanthren-17-yl)ethan-1-one], `C[C@@]1(O)CC[C@]2(C)[C@H]3CC[C@]4(C)[C@@H](C(=O)Cn5ncc6ccncc65)CC[C@H]4[C@@H]3CC[C@]2(C)C1` [I-A7, 1-((3R,5R,8S,9S,10R,13S,14S,17S)-3-hydroxy-3,5,10,13-tetramethylhexadecahydro-1H-cyclopenta[a]phenanthren-17-yl)-2-(1H-pyrazolo[3,4-c]pyridin-1-yl)ethan-1-one] is lower in IC50: 1000 to 10000 nM for the first, 100 to 1000 nM for the second. The second is the more potent here.

Same assay, conditions: Table II-2, 3 nM [35S]-TBPS, in the presence of 5 mM GABA, read-out: TBPS IC50

`CC[C@]12CC[C@@](C)(O)C[C@H]1CC[C@H]1[C@@H]3CC[C@H](C(=O)Cn4cc(C#N)cn4)[C@@]3(C)CC[C@@H]12` and `CC[C@]12CC[C@@](C)(O)C[C@H]1CC[C@H]1[C@@H]3CC[C@H](C(=O)Cn4nnc5ccc(OC)cc54)[C@@]3(C)CC[C@@H]12` (single isomer, unassigned) [II-M2] cannot be ordered by IC50: < 10 nM for the first, < 10 nM for the second.

`CC[C@]12CC[C@@](C)(O)C[C@H]1CC[C@H]1[C@@H]3CC[C@H](C(=O)Cn4nnc5cc(OC)ccc54)[C@@]3(C)CC[C@@H]12` (single isomer, unassigned) [II-M2a] and `CC[C@]12CC[C@@](C)(O)C[C@H]1CC[C@H]1[C@@H]3CC[C@H](C(=O)Cn4nc5ccc(OC)cc5n4)[C@@]3(C)CC[C@@H]12` (single isomer, unassigned) [II-M2b] cannot be ordered by IC50: < 10 nM for the first, < 10 nM for the second.

For `CCOC[C@@]1(O)CC[C@@]2(CC)C(CC[C@@H]3[C@@H]2CC[C@]2(C)[C@@H](C(=O)Cn4nnc(C)n4)CC[C@@H]32)C1` (stereo in doubt) [II-77, 1-((3R,5R,8S,9S,10S,13S,14S,17S)-3-(ethoxymethyl)-10-ethyl-3-hydroxy-13-methylhexadecahydro-1H-cyclopenta[a]phenanthren-17-yl)-2-(5-methyl-2H-tetrazol-2-yl)ethan-1-one], the IC50 was 10 to 100 nM.
